Laboratory results reported in the supplement of paper PMC10307832.

What was measured:
Experiment in all cases: relative viability (nuclei count vs DMSO), 5 days (fraction); higher = more cells survive
VX-11e + Pictilisib = compound: CC1=CN=C(N=C1C2=CNC(=C2)C(=O)N[C@H](CO)C3=CC(=CC=C3)Cl)NC4=C(C=C(C=C4)F)Cl [VX-11e] + CS(=O)(=O)N1CCN(Cc2cc3nc(-c4cccc5[nH]ncc45)nc(N4CCOCC4)c3s2)CC1 [Pictilisib] (partner 1 µM)
Procedure, shortened: (§1)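 Lung cancer cell lines in 1536-well plates were dosed by pin tool the day after seeding, either with one drug alone or with a fixed anchor-drug dose plus five library-drug doses (not always all listed) in √10 steps. After 5 days, cells were fixed and their nuclei stained in one step (final 0.05% Triton X-100, 1% formaldehyde, 1 ug/ml Hoechst), then counted on 4× images. Relative viability is the nuclei count in treated wells divided by that in vehicle wells. Values are medians of duplicate plates.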

VX-11e + Crizotinib = compound: CC1=CN=C(N=C1C2=CNC(=C2)C(=O)N[C@H](CO)C3=CC(=CC=C3)Cl)NC4=C(C=C(C=C4)F)Cl [VX-11e] + C[C@@H](Oc1cc(-c2cnn(C3CCNCC3)c2)cnc1N)c1c(Cl)ccc(F)c1Cl [Crizotinib] (partner 1 µM)
Procedure, shortened: as §1

VX-11e + Dasatinib = compound: CC1=CN=C(N=C1C2=CNC(=C2)C(=O)N[C@H](CO)C3=CC(=CC=C3)Cl)NC4=C(C=C(C=C4)F)Cl [VX-11e] + Cc1nc(Nc2ncc(C(=O)Nc3c(C)cccc3Cl)s2)cc(N2CCN(CCO)CC2)n1 [Dasatinib] (partner 0.075 µM)
Procedure, shortened: as §1

VX-11e + Vorinostat = compound: CC1=CN=C(N=C1C2=CNC(=C2)C(=O)N[C@H](CO)C3=CC(=CC=C3)Cl)NC4=C(C=C(C=C4)F)Cl [VX-11e] + O=C(CCCCCCC(=O)Nc1ccccc1)NO [Vorinostat] (partner 1 µM)
Procedure, shortened: as §1

Cell Line	relative viability (VX-11e + Pictilisib; first compound 0.04 µM)	relative viability (VX-11e + Pictilisib; first compound 0.4 µM)	relative viability (VX-11e + Pictilisib; first compound 1.265 µM)	relative viability (VX-11e + Pictilisib; first compound 4 µM)	relative viability (VX-11e + Crizotinib; first compound 0.04 µM)	relative viability (VX-11e + Crizotinib; first compound 0.4 µM)	relative viability (VX-11e + Crizotinib; first compound 1.265 µM)	relative viability (VX-11e + Crizotinib; first compound 4 µM)	relative viability (VX-11e + Dasatinib; first compound 0.04 µM)	relative viability (VX-11e + Dasatinib; first compound 0.1265 µM)	relative viability (VX-11e + Dasatinib; first compound 0.4 µM)	relative viability (VX-11e + Dasatinib; first compound 1.265 µM)	relative viability (VX-11e + Dasatinib; first compound 4 µM)	relative viability (VX-11e + Vorinostat; first compound 0.04 µM)	relative viability (VX-11e + Vorinostat; first compound 0.1265 µM)	relative viability (VX-11e + Vorinostat; first compound 0.4 µM)	relative viability (VX-11e + Vorinostat; first compound 1.265 µM)	relative viability (VX-11e + Vorinostat; first compound 4 µM)	relative viability (VX-11e + Pictilisib; first compound 0.1265 µM)	relative viability (VX-11e + Crizotinib; first compound 0.1265 µM)
NCI-H322M	0.496	0.453	0.439	0.389	1.08	0.942	0.987	0.699	0.224	0.208	0.27	0.252	0.225	0.763	0.813	1.13	0.736	0.64		
NCI-H358	0.3		0.372	0.254	0.692		0.523	0.225	0.17	0.125	0.0855	0.162	0.103	0.725	0.63	0.513	0.54	0.135	0.313	0.509
NCI-H441	0.349		0.371	0.24	0.711		0.857	0.555	0.685	0.814		0.502	0.318	0.835	0.786		0.753	0.569	0.518	0.72
NCI-H460	0.306	0.141	0.173	0.1	1.18	0.784	0.56	0.0797	0.476	0.515	0.23	0.266	0.0901	0.855	0.693	0.692	0.522	0.0489	0.27	0.907
NCI-H520	0.267	0.34	0.274	0.336	0.773	0.741	0.914	0.59	0.175	0.188	0.199	0.338	0.293	0.646	0.875	0.682	0.698	0.518	0.276	0.748
NCI-H596	0.377	0.378	0.431	0.319	0.891	1.09	0.939	0.722	0.542	0.516	0.466	0.425	0.419	0.472	0.635	0.597	0.387	0.354	0.429	1.05
NCI-H647	0.32	0.122	0.381	0.132	1.1	1.01	0.608	0.523	0.23	0.215	0.0848	0.123	0.0992	0.501	0.655	0.637	0.496	0.339	0.26	0.916
NCI-H650		1.23		0.819		0.711		0.478	0.418	0.467	0.425	0.414	0.398	0.33	0.435	0.63	0.608	0.533	0.927	0.538
NCI-H661	0.324	0.4	0.403	0.363		1	1.16	0.934	0.863	0.799	0.784	0.684	0.352	0.784	0.798	0.718	0.794	0.747	0.462	0.974
NCI-H727	0.243	0.314	0.238	0.173	0.722	0.712	0.419	0.243	0.355	0.279	0.337	0.415	0.258	0.997	1.08	1.28	1.12	0.787	0.451	0.847
NCI-H838	0.333	0.266	0.424	0.292	0.888	0.798	0.881	0.501	0.255	0.326	0.222	0.247	0.267	0.774	0.669	0.681	0.639	0.591	0.435	0.82
NCI-H1355	0.263	0.166	0.3	0.232	1.1	1.09	0.875	0.479	0.523	0.669	0.334	0.43	0.321	0.472	0.617	0.591	0.52	0.345	0.194	0.993
NCI-H1437	0.36	0.356	0.163	0.124	1.05	0.853	0.974	0.487	0.292	0.329	0.161	0.218	0.16	0.82	0.864	0.82	0.739	0.458	0.281	0.957
NCI-H1650	0.531	0.171	0.276	0.303	1.06	0.751	0.912	0.874	0.304	0.385		0.312	0.187	0.561	0.549	0.409	0.529	0.458	0.451	0.87
NCI-H1651	0.494	0.504	0.548	0.536	0.916	0.826	0.768	0.812	0.43	0.378	0.368	0.328	0.323	0.526	0.557	0.55	0.517	0.569	0.519	0.821
NCI-H1666	0.511	0.367	0.336	0.294	1.03	0.753	0.752	0.456	0.855	0.87	0.69	0.688	0.477	1.08	0.953		0.992	0.798	0.406	0.818
NCI-H1734	0.358	0.376	0.31	0.245	0.67	0.652	0.606	0.296	0.418	0.396	0.536	0.415	0.256	0.71	0.779	0.593	0.449	0.341	0.39	0.584
